Measurements: patent US8541470B2, “Topical pharmaceutical formulation” (Futura Medical Developments Limited, priority 2007, dated 2013)
Structures can show the parent of a compound that is named as a salt.

Assays:
[1] = saturated solubility in solvents; type: physicochemical
[2] = topical regional use; relative to piroxicam; cited from earlier work

Q: For `O=C(O)Cc1ccccc1Nc1c(Cl)cccc1Cl` [diclofenac acid], which “saturated solubility in polyethylene glycol” value ([1]; solvent polyethylene glycol) is on record?
A: Its value is 11.18 % w/w.

Q: And the “saturated solubility in propanol or iso-propanol” value ([1]; solvent propanol or iso-propanol)?
A: Its value is 3-4%.

Q: What about the “saturated solubility in pure ethanol” value ([1]; solvent pure ethanol) of the same compound?
A: Its value is 5 % w/w.

Q: For `O=C(O)Cc1ccccc1Nc1c(Cl)cccc1Cl` [sodium salt of diclofenac acid, diclofenac sodium], which “saturated solubility in propylene glycol” value ([1]; solvent propylene glycol) is on record?
A: Its value is “approximately 50 % w/w”.

Q: For `O=C(O)Cc1ccccc1Nc1c(Cl)cccc1Cl` [diclofenac], which efficacy index, factor greater than that for piroxicam [2] is on record?
A: The efficacy index, factor greater than that for piroxicam was ~1000.
